Experimental data: patent US8304447B2, “2-acylaminopropoanol-type glucosylceramide synthase inhibitors” (Genzyme Corporation, priority 2007, dated 2012)
pIC50: −log10 of the molar value.

Test system: GM3
Assay: GM3 Elisa assay
Assay type: cell-based
Settings: Table 3 (IC 50 Values); B16-FO cells; read-out: IC50_uM_Mean
Summary of the method: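 Cellular GM3 ELISA: fixed cells probed with monoclonal anti-GM3 (NeuAc), HRP-conjugated anti-IgM and fluorogenic Quantablu substrate, read at Ex 325/Em 420. Cells were B16-FO, treated 2 days after a 6 h attachment on collagen-coated wells.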

Row | SMILES | pIC50
1 | CCCCCCCC(=O)N[C@H](CN1CC[C@@H](O)C1)[C@H](O)c1ccc2c(c1)OCCO2 [Compound 512] | 5.52 to 6.00
2 | COc1ccc(OCCC(=O)N[C@H](CN2CC[C@@H](O)C2)[C@H](O)c2ccc3c(c2)OCCO3)cc1 [Compound 513] | 5.00 to 5.52
3 | COc1ccc(OCCC(=O)N[C@H](CN2CC[C@H](O)C2)[C@H](O)c2ccc3c(c2)OCCO3)cc1 [Compound 514] | 6.00 to 7.00
4 | CCCCCCCC(=O)N[C@H](CN1CC[C@H](O)C1)[C@H](O)c1ccc2c(c1)OCCO2 [Compound 515] | ≥ 7.00
5 | COc1ccc(OCCC(=O)N[C@H](CN2CC3CC3C2)[C@H](O)c2ccc3c(c2)OCCO3)cc1 (stereo partly drawn) [Compound 516] | 6.00 to 7.00
6 | CCCCCCCC(=O)N[C@H](CN1CC2CC2C1)[C@H](O)c1ccc2c(c1)OCCO2 (stereo partly drawn) [Compound 517] | 6.00 to 7.00
7 | COc1ccc(C(=O)CCCCCC(=O)N[C@H](CN2CC[C@@H](O)C2)[C@H](O)c2ccc3c(c2)OCCO3)cc1 [Compound 518] | 6.00 to 7.00
8 | COc1ccc(OCCC(=O)N[C@H](CN2CCC(C)(C)C2)[C@H](O)c2ccc3c(c2)OCCO3)cc1 [Compound 519] | 5.00 to 5.52
9 | COc1ccc(C(=O)CCCCCC(=O)N[C@H](CN2CCC(C)(C)C2)[C@H](O)c2ccc3c(c2)OCCO3)cc1 [Compound 520] | 5.52 to 6.00
10 | CCCCCCCC(=O)N[C@H](CN1CCC(C)(C)C1)[C@H](O)c1ccc2c(c1)OCCO2 [Compound 521] | 5.00 to 5.52
11 | COc1ccc(C(=O)CCCCCC(=O)N[C@H](CN2C3CCC2CC3)[C@H](O)c2ccc3c(c2)OCCO3)cc1 [Compound 522] | ≥ 7.00
12 | COc1ccc(OCCC(=O)N[C@H](CN2C3CCC2CC3)[C@H](O)c2ccc3c(c2)OCCO3)cc1 [Compound 523] | 6.00 to 7.00
13 | CCCCCCCC(=O)N[C@H](CN1C2CCC1CC2)[C@H](O)c1ccc2c(c1)OCCO2 [Compound 524] | 6.00 to 7.00
14 | COc1ccc(C(=O)CCCCCC(=O)N[C@H](CN2CCC[C@@H]2C)[C@@H](O)c2ccc3c(c2)OCCO3)cc1 [Compound 525] | ≥ 7.00
15 | COc1ccc(OCCC(=O)N[C@H](CN2CCC[C@@H]2C)[C@@H](O)c2ccc3c(c2)OCCO3)cc1 [Compound 526] | 6.00 to 7.00
16 | CCCCCCCC(=O)N[C@H](CN1CCC[C@@H]1C)[C@@H](O)c1ccc2c(c1)OCCO2 [Compound 527] | 5.52 to 6.00
17 | COc1ccc(OCCC(=O)N[C@H](CN2CCC[C@H]2C)[C@@H](O)c2ccc3c(c2)OCCO3)cc1 [Compound 528] | 5.52 to 6.00
18 | COc1ccc(C(=O)CCCCCC(=O)N[C@H](CN2CCC[C@H]2C)[C@@H](O)c2ccc3c(c2)OCCO3)cc1 [Compound 529] | ≥ 7.00
19 | CCCCCCCC(=O)N[C@H](CN1CCC[C@H]1C)[C@@H](O)c1ccc2c(c1)OCCO2 [Compound 530] | 5.00 to 5.52
20 | COc1ccc(C(=O)CCCCCC(=O)N[C@H](CN2CC[C@@H](F)C2)[C@H](O)c2ccc3c(c2)OCCO3)cc1 [Compound 531] | ≥ 7.00
21 | COc1ccc(C(=O)CCCCCC(=O)N[C@H](CN2CC[C@H](O)C2)[C@H](O)c2ccc3c(c2)OCCO3)cc1 [Compound 532] | ≥ 7.00
22 | COC[C@@H]1CCCN1C[C@@H](NC(=O)CCCCCC(=O)c1ccc(OC)cc1)[C@@H](O)c1ccc2c(c1)OCCO2 [Compound 533] | 6.00 to 7.00

Row | SMILES | pIC50
23 | CCCCCCCC(=O)N[C@H](CN1CCC[C@H]1COC)[C@@H](O)c1ccc2c(c1)OCCO2 [Compound 534] | 5.00 to 5.52
24 | COC[C@@H]1CCCN1C[C@@H](NC(=O)CCOc1ccc(OC)cc1)[C@@H](O)c1ccc2c(c1)OCCO2 [Compound 535] | 5.00 to 5.52
25 | COc1ccc(C(=O)CCCCCC(=O)NCCN2CCCC2)cc1 [Compound 536] | 5.00 to 5.52
26 | COc1ccc(C(=O)CCCCCC(=O)N[C@H](CN2CC3CC3C2)[C@H](O)c2ccc3c(c2)OCCO3)cc1 (stereo partly drawn) [Compound 537] | ≥ 7.00
27 | COCC1CCCN1C[C@@H](NC(=O)CCOc1ccc(OC)cc1)[C@H](O)c1ccc2c(c1)OCCO2 (stereo partly drawn) [Compound 538] | 5.00 to 5.52
28 | COC[C@H]1CCCN1C[C@@H](NC(=O)CCCCCC(=O)c1ccc(OC)cc1)[C@H](O)c1ccc2c(c1)OCCO2 [Compound 539] | 5.00 to 5.52
29 | CCCCCCCC(=O)N[C@H](CN1CCC[C@@H]1COC)[C@H](O)c1ccc2c(c1)OCCO2 [Compound 540] | 5.00 to 5.52
30 | COc1ccc(C(=O)CCCCCC(=O)N[C@@H](Cc2ccccc2)CN2CCCC2)cc1 [Compound 541] | 5.00 to 5.52
31 | COc1ccc(OCCC(=O)N[C@H](CN2CCC[C@H]2C(F)(F)F)[C@H](O)c2ccc3c(c2)OCCO3)cc1 [Compound 542] | 5.00 to 5.52
32 | CCCCCCCC(=O)N[C@H](CN1CCC[C@H]1C(F)(F)F)[C@H](O)c1ccc2c(c1)OCCO2 [Compound 543] | 5.00 to 5.52
33 | COc1ccc(OCCC(=O)N[C@H](CN2C[C@@H]3CC[C@H]2C3)[C@H](O)c2ccc3c(c2)OCCO3)cc1 [Compound 544] | 6.00 to 7.00
34 | CCCCCCCC(=O)N[C@H](CN1C[C@@H]2CC[C@H]1C2)[C@H](O)c1ccc2c(c1)OCCO2 [Compound 545] | 6.00 to 7.00
35 | CCCCCCCC(=O)N[C@H](CN1CCC[C@@H]1C(F)(F)F)[C@H](O)c1ccc2c(c1)OCCO2 [Compound 546] | 5.00 to 5.52
36 | COc1ccc(C(=O)CCCCCC(=O)N[C@H](CN2C[C@@H]3CC[C@H]2C3)[C@H](O)c2ccc3c(c2)OCCO3)cc1 [Compound 547] | ≥ 7.00
37 | COc1ccc(C(=O)CCCCCC(=O)N[C@H](CN2[C@H](C)CC[C@H]2C)[C@H](O)c2ccc3c(c2)OCCO3)cc1 [Compound 548] | 5.52 to 6.00
38 | CCCCCCCC(=O)N[C@H](CN1[C@H](C)CC[C@H]1C)[C@H](O)c1ccc2c(c1)OCCO2 [Compound 549] | 5.00 to 5.52
39 | COc1ccc(OCCC(=O)N[C@H](CN2[C@H](C)CC[C@H]2C)[C@H](O)c2ccc3c(c2)OCCO3)cc1 [Compound 550] | 5.00 to 5.52
40 | COc1ccc(OCCC(=O)N[C@H](CN2CCCC2(C)C)[C@H](O)c2ccc3c(c2)OCCO3)cc1 [Compound 551] | 5.00 to 5.52
41 | COc1ccc(C(=O)CCCCCC(=O)N[C@H](CN2CCCC2(C)C)[C@H](O)c2ccc3c(c2)OCCO3)cc1 [Compound 552] | 5.52 to 6.00
42 | CCCCCCCC(=O)N[C@H](CN1CCCC1(C)C)[C@H](O)c1ccc2c(c1)OCCO2 [Compound 553] | 5.00 to 5.52
43 | O=C(CCCCOC1CCOCC1)N[C@H](CN1CCCC1)[C@H](O)c1ccc2c(c1)OCCO2 [Compound 554] | 5.00 to 5.52
44 | COc1ccc(S(=O)(=O)CCCCCC(=O)N[C@H](CN2CCCC2)[C@H](O)c2ccc3c(c2)OCCO3)cc1 [Compound 555] | 6.00 to 7.00

Row | SMILES | pIC50
45 | O=C(CCCCC(=O)C1CCOCC1)N[C@H](CN1CCCC1)[C@H](O)c1ccc2c(c1)OCCO2 [Compound 556] | 5.00 to 5.52
46 | O=C(CCCCS(=O)(=O)C1CCCCC1)N[C@H](CN1CCCC1)[C@H](O)c1ccc2c(c1)OCCO2 [Compound 557] | 5.00 to 5.52
47 | O=C(CCCCC(=O)C1CCC(F)(F)CC1)N[C@H](CN1CCCC1)[C@H](O)c1ccc2c(c1)OCCO2 [Compound 558] | 5.52 to 6.00
48 | O=C(CCCCCC1CCOCC1)N[C@H](CN1CCCC1)[C@H](O)c1ccc2c(c1)OCCO2 [Compound 559] | 6.00 to 7.00
49 | O=C(CCCCS(=O)(=O)C12CC3CC(CC(C3)C1)C2)N[C@H](CN1CCCC1)[C@H](O)c1ccc2c(c1)OCCO2 [Compound 560] | 6.00 to 7.00
50 | O=C(CCCS(=O)(=O)C1CCCCC1)N[C@H](CN1CCCC1)[C@H](O)c1ccc2c(c1)OCCO2 [Compound 561] | 5.00 to 5.52
51 | O=C(CCCCCS(=O)(=O)C1CCCCC1)N[C@H](CN1CCCC1)[C@H](O)c1ccc2c(c1)OCCO2 [Compound 562] | 6.00 to 7.00
52 | CCCCCCCC(=O)N[C@H](Cc1ncc[nH]1)[C@H](O)c1ccc2c(c1)OCCO2 [Compound 563] | 5.00 to 5.52
53 | COc1ccc(S(=O)(=O)CCCCCC(=O)N[C@H](CN2CC[C@@H](F)C2)[C@H](O)c2ccc3c(c2)OCCO3)cc1 [Compound 564] | 6.00 to 7.00
54 | O=C(CCCCCC(=O)c1ccc(F)cc1)N[C@H](CN1CC[C@@H](F)C1)[C@H](O)c1ccc2c(c1)OCCO2 [Compound 565] | ≥ 7.00
55 | O=C(CCCOc1ccc(F)cc1)N[C@H](CN1CCCC1)[C@H](O)c1ccc2c(c1)OCCO2 [Compound 566] | ≥ 7.00
56 | O=C(CCCOc1ccc(F)cc1)N[C@H](CN1CC[C@@H](F)C1)[C@H](O)c1ccc2c(c1)OCCO2 [Compound 567] | 6.00 to 7.00
57 | O=C(CCOc1ccc(F)cc1)N[C@H](CN1CC[C@@H](F)C1)[C@H](O)c1ccc2c(c1)OCCO2 [Compound 568] | 6.00 to 7.00
58 | Cc1nccn1C[C@@H](NC(=O)CCCCCC(=O)c1ccc(F)cc1)C(O)c1ccc2c(c1)OCCO2 (stereo partly drawn) [Compound 569] | 5.00 to 5.52
59 | Cc1nccn1C[C@@H](NC(=O)CCCOc1ccc(F)cc1)[C@H](O)c1ccc2c(c1)OCCO2 [Compound 570] | 5.00 to 5.52
60 | CCCCCCCC(=O)N[C@H](Cn1ccnc1C)[C@H](O)c1ccc2c(c1)OCCO2 [Compound 571] | 5.00 to 5.52
61 | O=C(CCCCS(=O)(=O)C1CCCCC1)N[C@H](CN1CC[C@@H](F)C1)[C@H](O)c1ccc(OCc2ccccc2)cc1 [Compound 572] | 6.00 to 7.00
62 | O=C(CCCCC(=O)C1CCC(F)(F)CC1)N[C@H](CN1CC[C@@H](F)C1)[C@H](O)c1ccc(OCc2ccccc2)cc1 [Compound 573] | 6.00 to 7.00
63 | O=C(CCCCCC1CCOCC1)N[C@H](CN1CC[C@@H](F)C1)C(O)c1cccc(OCc2ccccc2)c1 (stereo partly drawn) [Compound 574] | 6.00 to 7.00
64 | O=C(CCCCOC1CCOCC1)N[C@H](CN1CC[C@@H](F)C1)[C@H](O)c1ccc(OCc2ccccc2)cc1 [Compound 575] | 6.00 to 7.00
65 | O=C(CCCCC(=O)C1CCOCC1)N[C@H](CN1CC[C@@H](F)C1)[C@H](O)c1ccc(OCc2ccccc2)cc1 [Compound 576] | 6.00 to 7.00
66 | O=C(CCCS(=O)(=O)C1CCCCC1)N[C@H](CN1CC[C@@H](F)C1)[C@H](O)c1ccc(OCc2ccccc2)cc1 [Compound 577] | 6.00 to 7.00
